Each compound was assayed against wild-type Epidermal Growth Factor Receptor (EGFR) (Homo sapiens (Human), UniProt P00533) (assay: WT-EGFR Kinase Assay (TR-FRET, 2 mM ATP)). Conditions: EGFR Wildtyp 2 mM ATP IC50 [mol/l] (median), median or individual measurements.
Chain of wild-type Epidermal Growth Factor Receptor (EGFR) (P00533 669-1210): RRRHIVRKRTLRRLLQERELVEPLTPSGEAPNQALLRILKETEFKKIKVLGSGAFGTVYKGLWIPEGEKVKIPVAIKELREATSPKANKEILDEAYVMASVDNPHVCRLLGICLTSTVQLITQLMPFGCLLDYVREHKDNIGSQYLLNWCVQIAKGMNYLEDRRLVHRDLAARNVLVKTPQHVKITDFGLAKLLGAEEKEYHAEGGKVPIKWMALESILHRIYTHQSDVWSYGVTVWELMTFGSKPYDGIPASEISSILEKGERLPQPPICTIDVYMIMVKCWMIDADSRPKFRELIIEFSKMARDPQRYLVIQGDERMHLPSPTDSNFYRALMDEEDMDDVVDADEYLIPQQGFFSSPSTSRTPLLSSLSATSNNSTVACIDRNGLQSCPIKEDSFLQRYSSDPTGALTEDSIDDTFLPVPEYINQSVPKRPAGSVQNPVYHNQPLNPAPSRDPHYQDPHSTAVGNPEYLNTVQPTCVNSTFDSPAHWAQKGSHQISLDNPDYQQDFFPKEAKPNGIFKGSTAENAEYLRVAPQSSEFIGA
Assay type: biochemical
Description: Inhibitory activity of compounds of the present invention against wild-type Epidermal Growth Factor Receptor (EGFR) was quantified employing the TR-FRET based EGFR assay as described in the following paragraphs.
Recombinant fusion protein of N-terminal Glutathion-S-Transferase (GST) and a fragment of human EGFR (amino acids R669 to A1210), expressed in Sf9 insect cells and purified via affinity chromatography using Glutathion Sepharose as described above, was used as kinase. As substrate for the kinase reaction the biotinylated peptide biotin-Ahx-[…] (C-terminus in amide form) was used which can be purchased e.g. form the company Biosynthan GmbH (Berlin-Buch, Germany).
For the assay 50 nl of a 100 fold concentrated solution of the test compound in DMSO was pipetted into either a black low volume 384 well microtiter plate or a black 1536 well microtiter plate (both Greiner Bio-One, Frickenhausen, Germany), 2 μL of a solution of EGFR in aqueous assay buffer [50 mM Hepes pH 7.0, 10 mM MgCl2, 1 mM dithiothreitol, 0.5 mM EGTA, 0.3 mM activated sodium ortho-vanadate, 0.005% (w/v) bovine serum albumin, 0.005% (v/v) Tween-20] were added and the mixture was incubated for 15 min at 22° C. to allow pre-binding of the test compounds to the enzyme before the start of the kinase reaction. […] The concentration of EGFR was adjusted depending of the activity of the enzyme lot and was chosen appropriate to have the assay in the linear range, typical concentration was […]. The reaction was stopped by the addition of 3 μL of a solution of HTRF detection reagents (83.3 nM streptavidine-XL665 [Cisbio Bioassays, Codolet, France] and 1.67 nM PT66-Tb-Cryptate, a terbium-cryptate labelled anti-phospho-tyrosine antibody from Cisbio Bioassays [instead of the PT66-Tb-cryptate PT66-Eu-Chelate from Perkin Elmer can also be used]) in an aqueous EDTA-solution (133.3 mM EDTA, 0.2% (w/v) bovine serum albumin in 50 mM HEPES pH 7.5).
The resulting mixture was incubated 1 h at 22° C. to allow the binding of the biotinylated phosphorylated peptide to the streptavidine-XL665 and the PT66-Tb-Cryptate. Subsequently the amount of phosphorylated substrate was evaluated by measurement of the resonance energy transfer from the PT66-Tb-Cryptate to the streptavidine-XL665. Therefore, the fluorescence emissions at 620 nm and 665 nm after excitation at 337 nm were measured in a HTRF reader, e.g. a Pherastar (BMG Labtechnologies, Offenburg, Germany) or a Viewlux (Perkin-Elmer). The ratio of the emissions at 665 nm and at 622 nm was taken as the measure for the amount of phosphorylated substrate.
In the case of `CC(C(=O)Nc1cc(-c2[nH]c3c(CC(F)(F)F)cn(C)c(=O)c3c2-c2ccccc2)ccn1)c1ccc(F)cc1` (single isomer, unassigned; (-)) [Example 016, (-)-2-(4-fluorophenyl)-N-{4-[5-methyl-4-oxo-3-phenyl-7-(2,2,2-trifluoroethyl)-4,5-dihydro-1H-pyrrolo[3,2-c]pyridin-2-yl]pyridin-2-yl}propanamide], the IC50 is reported as > 20 µM. For `Cc1cn(C)c(=O)c2c(-c3ccccc3)c(-c3ccnc(NC(=O)C(CC(F)F)c4ccc(F)cc4)c3)[nH]c12` (racemic) [Example 040, N-[4-(5,7-dimethyl-4-oxo-3-phenyl-4,5-dihydro-1H-pyrrolo[3,2-c]pyridin-2-yl)pyridin-2-yl]-4,4-difluoro-2-(4-fluorophenyl)butanamide], the IC50 was > 20 µM. `CC(C(=O)Nc1cc(-c2[nH]c3c(CC(F)(F)F)cn(C)c(=O)c3c2-c2ccccc2)ccn1)c1ccc(F)cc1` (single isomer, unassigned; (+)) [Example 015, (+)-2-(4-fluorophenyl)-N-{4-[5-methyl-4-oxo-3-phenyl-7-(2,2,2-trifluoroethyl)-4,5-dihydro-1H-pyrrolo[3,2-c]pyridin-2-yl]pyridin-2-yl}propanamide] was tested, and the IC50 was 1.91 µM. For `Cc1cn(C)c(=O)c2c(-c3ccc(F)cc3)c(-c3ccnc(NC(=O)C(CC(F)F)c4ccc(F)cc4)c3)[nH]c12` (single isomer, unassigned; (-)) [Example 035, (-)-4,4-difluoro-2-(4-fluorophenyl)-N-{4-[3-(4-fluorophenyl)-5,7-dimethyl-4-oxo-4,5-dihydro-1H-pyrrolo[3,2-c]pyridin-2-yl]pyridin-2-yl}butanamide], the IC50 was > 20 µM. In the case of `Cn1ccc2[nH]c(-c3ccnc(NC(=O)C(CC(F)F)c4ccc(F)cc4)c3)c(-c3ccccc3)c2c1=O` (racemic) [Example 006, 4,4-difluoro-2-(4-fluorophenyl)-N-[4-(5-methyl-4-oxo-3-phenyl-4,5-dihydro-1H-pyrrolo[3,2-c]pyridin-2-yl)pyridin-2-yl]butanamide], the IC50 is reported as > 20 µM. `CN1CC(CC2CC2)c2[nH]c(-c3ccnc(NC(=O)Cc4ccc(F)cc4)c3)c(-c3ccccc3)c2C1=O` (racemic) [Example 055, N-{4-[7-(cyclopropylmethyl)-5-methyl-4-oxo-3-phenyl-4,5,6,7-tetrahydro-1H-pyrrolo[3,2-c]pyridin-2-yl]pyridin-2-yl}-2-(4-fluorophenyl)acetamide] was tested, and the IC50 was 3.43 µM. With `Cn1cc(CC(F)(F)F)c2[nH]c(-c3ccnc(NC(=O)C(CC(F)F)c4ccc(F)cc4)c3)c(-c3ccccc3)c2c1=O` (racemic) [Example 018, 4,4-difluoro-2-(4-fluorophenyl)-N-{4-[5-methyl-4-oxo-3-phenyl-7-(2,2,2-trifluoroethyl)-4,5-dihydro-1H-pyrrolo[3,2-c]pyridin-2-yl]pyridin-2-yl}butanamide] the IC50 was > 20 µM. With `CC(C(=O)Nc1cc(-c2[nH]c3c(c2-c2ccccc2)C(=O)NCC3(C)C)ccn1)c1ccc(F)cc1` (racemic) [Example 046, N-[4-(7,7-dimethyl-4-oxo-3-phenyl-4,5,6,7-tetrahydro-1H-pyrrolo[3,2-c]pyridin-2-yl)pyridin-2-yl]-2-(4-fluorophenyl)propanamide] the IC50 was > 20 µM.

Same assay, conditions: read-out: EGFR Wildtyp 2 mM ATP IC50 [mol/l] (median), median or individual measurements
With `CC1CN(C)C(=O)c2c1[nH]c(-c1ccnc(NC(=O)C(C)c3ccc(F)cc3)c1)c2-c1ccccc1` (centres unmarked) [Example 037] the IC50 was > 20 µM. `CC(C(=O)Nc1cc(-c2[nH]c3c(c2-c2ccccc2)C(=O)N(C)CC3CC2CC2)ccn1)c1ccc(F)cc1` (centres unmarked) [Example 057] was tested, and the IC50 was > 20 µM. For `CC1(C)CNC(=O)c2c1[nH]c(-c1ccnc(NC(=O)C(CC(F)F)c3ccc(F)cc3)c1)c2-c1ccccc1` (single isomer, unassigned) [Example 045, N-[4-(7,7-dimethyl-4-oxo-3-phenyl-4,5,6,7-tetrahydro-1H-pyrrolo[3,2-c]pyridin-2-yl)pyridin-2-yl]-4,4-difluoro-2-(4-fluorophenyl)butanamide], the IC50 was > 20 µM.

Source: patent publication US20230322767A1, “ARYL SUBSTITUTED PYRROLO-PYRIDINONES AND THERAPEUTIC USES THEREOF” (Bayer Aktiengesellschaft, priority 2020, published 2023)
